Drawing on US9809598B2 (Merck Patent GmbH, priority 2014, dated 2017), this text covers EC50 and IC50 for 21 compounds.

Broadly, the EC50 is the concentration needed to bring the measured effect to its halfway point. The term IC50 denotes the concentration needed to halve the response being measured.

Structures can show the parent of a compound that is named as a salt.

Test [1] deals with Tankyrases. Conditions: read-out: EC50 [M] TNKS cellular assay; DLD1 cells, 24 hours, Axin2 increase.
Procedure: Measurement of Cellular Inhibition of Tankyrase
Cells of the colon carcinoma cell line DLD1 are plated in 96 well plates with 1.5×10^4 cells per well. Next day, cells are treated with a serial dilution of test compound in seven steps as triplicates with a final DMSO concentration of 0.3%. […] The amount of isolated Axin2 protein is determined in a Luminex^200 machine (Luminex Corporation) according to the manufacturer's instruction by counting 100 events per well. […] As controls cells are treated with solvent alone (neutral control) and with a Tankyrase reference inhibitor IWR-2 (3E−06 M) which refers as control for maximum increase of Axin2. For analysis, the obtained data are normalized against the untreated solvent control and fitted for determination of the EC50 values using the Assay Explorer software (Accelrys).
Test [2] concerns the target T1, TNKS2 (Homo sapiens, UniProt Q9H2K2).
T1 construct: GST-tagged Tnks-2 (873-1166 aa, prepared in-house); made in house
The test can be described thus: TNKS2 activity ELISA (autoparsylation assay). The class given is biochemical. Conditions: GST-tagged Tnks-2 (873-1166 aa); read-out: IC50 [M] TNKS2 ELISA. An outline of the steps: (§1)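 Autoparsylation ELISA: biotinylated NAD serves as co-substrate for plate-bound GST-TNKS1/TNKS2, incubated with test compounds. Readout is HRP luminescence after streptavidin-HRP binding, referenced to the no-inhibitor reaction, from which IC50 values are derived.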
A general note: An ELISA detects its analyte on a solid surface through an enzyme-linked reagent.

Test [3] addresses T2, TNKS1 (Homo sapiens, UniProt O95271).
T2 construct: GST-tagged Tnks-1 (1023-1327 aa, prepared in-house); made in house
The test can be described thus: TNKS1 activity ELISA (autoparsylation assay). Particulars: GST-tagged Tnks-1 (1023-1327 aa). The class given is biochemical. The method, boiled down:
as §1

Test [4] deals with T3, PARP-1 (Homo sapiens, UniProt P09874).
T3 construct: purchased Enzo Life Sciences GmbH, Lörrach, Germany
T3 sequence (P09874 whole entry): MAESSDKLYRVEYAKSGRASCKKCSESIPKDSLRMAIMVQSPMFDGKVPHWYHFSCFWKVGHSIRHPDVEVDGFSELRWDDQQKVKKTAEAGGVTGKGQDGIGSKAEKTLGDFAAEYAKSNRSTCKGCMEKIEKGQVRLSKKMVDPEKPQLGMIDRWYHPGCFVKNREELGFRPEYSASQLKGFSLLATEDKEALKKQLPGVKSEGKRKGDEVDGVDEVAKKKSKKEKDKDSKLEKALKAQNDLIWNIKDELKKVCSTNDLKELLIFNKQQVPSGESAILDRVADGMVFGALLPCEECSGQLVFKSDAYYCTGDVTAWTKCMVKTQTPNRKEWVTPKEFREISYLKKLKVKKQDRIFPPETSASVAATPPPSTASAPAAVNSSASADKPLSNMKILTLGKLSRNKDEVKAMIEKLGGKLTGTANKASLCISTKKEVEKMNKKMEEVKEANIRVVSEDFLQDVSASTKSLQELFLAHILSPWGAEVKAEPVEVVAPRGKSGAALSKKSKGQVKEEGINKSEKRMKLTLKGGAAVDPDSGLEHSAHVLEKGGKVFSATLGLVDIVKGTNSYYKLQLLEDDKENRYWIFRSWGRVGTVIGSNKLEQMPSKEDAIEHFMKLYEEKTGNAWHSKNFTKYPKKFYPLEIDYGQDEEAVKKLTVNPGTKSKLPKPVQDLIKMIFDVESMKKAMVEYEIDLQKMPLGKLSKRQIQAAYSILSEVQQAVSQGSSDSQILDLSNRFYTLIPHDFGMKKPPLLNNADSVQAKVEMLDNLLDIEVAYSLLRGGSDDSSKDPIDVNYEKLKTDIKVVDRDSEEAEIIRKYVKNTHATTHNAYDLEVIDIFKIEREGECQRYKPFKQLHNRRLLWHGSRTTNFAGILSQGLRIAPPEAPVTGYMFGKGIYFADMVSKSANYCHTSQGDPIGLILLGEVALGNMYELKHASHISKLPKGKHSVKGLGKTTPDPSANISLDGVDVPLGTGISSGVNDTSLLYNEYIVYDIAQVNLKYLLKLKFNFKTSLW
The test can be described thus: PARP-1 autoparsylation assay (HTRF). The format is biochemical. Conditions: His-tagged Parp-1, autoparsylation HTRF. An outline of the steps: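 HTRF emission ratio reports biotin-ADP-ribose self-transfer onto His-tagged PARP-1, with biotinylated NAD/NAD as co-substrate, sensed via cryptate anti-His and Xlent-streptavidin.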
A general note: Time-resolved FRET reads energy transfer from a long-lived donor to a nearby acceptor.

T2 sequence (O95271 1023-1327): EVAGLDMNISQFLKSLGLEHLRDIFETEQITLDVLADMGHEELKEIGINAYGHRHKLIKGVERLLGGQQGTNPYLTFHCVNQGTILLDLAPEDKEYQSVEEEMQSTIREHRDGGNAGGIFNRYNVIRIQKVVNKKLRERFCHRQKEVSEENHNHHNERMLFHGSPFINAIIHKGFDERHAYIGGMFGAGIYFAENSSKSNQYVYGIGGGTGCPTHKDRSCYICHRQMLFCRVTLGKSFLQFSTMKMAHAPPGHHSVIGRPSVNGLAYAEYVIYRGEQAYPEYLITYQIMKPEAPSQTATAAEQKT
T1 sequence (Q9H2K2 873-1166): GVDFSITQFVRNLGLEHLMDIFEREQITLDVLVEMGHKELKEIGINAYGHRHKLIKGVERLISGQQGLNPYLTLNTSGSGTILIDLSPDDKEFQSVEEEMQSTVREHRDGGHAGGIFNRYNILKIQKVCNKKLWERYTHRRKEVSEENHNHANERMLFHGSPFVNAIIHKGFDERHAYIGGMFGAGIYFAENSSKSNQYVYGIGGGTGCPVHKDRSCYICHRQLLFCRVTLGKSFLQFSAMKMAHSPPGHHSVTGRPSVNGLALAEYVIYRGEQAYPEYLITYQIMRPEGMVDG

With `CCn1cc(C(=O)C2CCN(C(=O)CCCc3nc4c(C)scc4c(=O)[nH]3)CC2)cn1` [Compound C216, 2-{4-[4-(1-Ethyl-1H-pyrazole-4-carbonyl)-piperidin-1-yl]-4-oxo-butyl}-7-methyl-3H-thieno[3,4-d]pyrimidin-4-one], the 50% effective concentration (EC50) in test [1] stood at 5.2e-08 M. The results for the IC50 in test [2], in test [3] and in test [4] were 1.3e-09 M, 2.5 nM and 1500 nM, respectively.
The matching figures for `Cc1cc2c(=O)[nH]c(CCCC(=O)N3CCC(C(=O)c4cnn(C(C)C)c4)CC3)cn2n1` [Compound C217, 6-{4-[4-(1-Isopropyl-1H-pyrazole-4-carbonyl)-piperidin-1-yl]-4-oxo-butyl}-2-methyl-5H-pyrazolo[1,5-a]pyrazin-4-one]: 3e-08 M, 2.7e-09 M, 2 nM and 6600 nM.
As for `CC(C)n1cc(C(=O)C2CCN(C(=O)CCCc3nn4cccc4c(=O)[nH]3)CC2)cn1` [Compound C219, 2-{4-[4-(1-Isopropyl-1H-pyrazole-4-carbonyl)-piperidin-1-yl]-4-oxo-butyl}-3H-pyrrolo[2,1-f][1,2,4]triazin-4-one], the EC50 in test [1] was determined as 2.4e-08 M. Besides, the IC50 in test [2] was 1.2e-09 M; in test [3] it was 2 nM; in test [4] it was 25000 nM.
As to `Cc1cc2c(=O)[nH]c(CCCC(=O)N3CCC(C(=O)c4cnn(C(C)C)c4)CC3)nn2c1` [Compound C220, 2-{4-[4-(1-Isopropyl-1H-pyrazole-4-carbonyl)-piperidin-1-yl]-4-oxo-butyl}-6-methyl-3H-pyrrolo[2,1-f][1,2,4]triazin-4-one], in test [1], the EC50 was determined as 4e-08 M. For the same compound, the IC50 is 3.7e-09 M in test [2], 4.2 nM in test [3] and 6200 nM in test [4].
The matching figures for `CC(C)n1cc(C(=O)C2CCN(C(=O)CCCc3nn4cc(F)cc4c(=O)[nH]3)CC2)cn1` [Compound C221, 6-Fluoro-2-{4-[4-(1-isopropyl-1H-pyrazole-4-carbonyl)-piperidin-1-yl]-4-oxo-butyl}-3H-pyrrolo[2,1-f][1,2,4]triazin-4-one]: 2.7e-08 M, 2e-09 M, 2.1 nM and 1900 nM.
Taken in the same sequence, the figures for `CCn1cc(C(=O)C2CCN(C(=O)CCCc3nn4c(C)ccc4c(=O)[nH]3)CC2)cn1` [Compound C222, 2-{4-[4-(1-Ethyl-1H-pyrazole-4-carbonyl)-piperidin-1-yl]-4-oxo-butyl}-7-methyl-3H-pyrrolo[2,1-f][1,2,4]triazin-4-one] were 2.6e-09 M, 2.9e-10 M, 0.24 nM and 1200 nM.
The matching figures for `Cc1ccc2c(=O)[nH]c(CCCC(=O)N3CCC(C(=O)c4cnn(C(C)C)c4)CC3)nn12` [Compound C223, 2-{4-[4-(1-Isopropyl-1H-pyrazole-4-carbonyl)-piperidin-1-yl]-4-oxo-butyl}-7-methyl-3H-pyrrolo[2,1-f][1,2,4]triazin-4-one]: 3.3e-09 M, 5.1e-10 M, 0.6 nM and 840 nM.
As for `CCn1cc(C(=O)C2CCN(C(=O)CCCc3nc4c(C)csc4c(=O)[nH]3)CC2)cn1` [Compound C224, 2-{4-[4-(1-Ethyl-1H-pyrazole-4-carbonyl)-piperidin-1-yl]-4-oxo-butyl}-7-methyl-3H-thieno[3,2-d]pyrimidin-4-one trifluoroacetate], the EC50 in test [1] stood at 1.8e-08 M. Moreover, the half-inhibitory concentration (IC50) in test [2] was found to be 7.1e-10 M; in test [3], 0.87 nM; in test [4] it was 3100 nM.
The matching figures for `Cc1csc2c(=O)[nH]c(CCCC(=O)N3CCC(C(=O)c4cnn(C(C)C)c4)CC3)nc12` [Compound C225, 2-{4-[4-(1-Isopropyl-1H-pyrazole-4-carbonyl)-piperidin-1-yl]-4-oxo-butyl}-7-methyl-3H-thieno[3,2-d]pyrimidin-4-one]: 1.4e-08 M, 4e-10 M, 0.73 nM and 700 nM.
The matching figures for `Cc1scc2c(=O)[nH]c(CCCC(=O)N3CCC(C(=O)c4cnn(C(C)C)c4)CC3)nc12` [Compound C226, 2-{4-[4-(1-Isopropyl-1H-pyrazole-4-carbonyl)-piperidin-1-yl]-4-oxo-butyl}-7-methyl-3H-thieno[3,4-d]pyrimidin-4-one]: 2.5e-08 M, 9.5e-10 M, 1.6 nM and 1800 nM.
In the case of `COc1ccc(C(=O)C2CCN(C(=O)CCCc3nc4c(c(=O)[nH]3)CCCC4)CC2)cc1` [Compound C227, 2-{4-[4-(4-Methoxy-benzoyl)-piperidin-1-yl]-4-oxo-butyl}-5,6,7,8-tetrahydro-3H-quinazolin-4-one], the concentration for a half-maximal effect (EC50) in test [1] is 3.7e-09 M. Further, the results for the IC50 in test [2], in test [3] and in test [4] were 4.2e-10 M, 0.66 nM and 410 nM, respectively.
The matching figures for `CC(C)n1cc(C(=O)C2CCN(C(=O)CCCc3nc4c(c(=O)[nH]3)COCC4)CC2)cn1` [Compound C229, 2-{4-[4-(1-Isopropyl-1H-pyrazole-4-carbonyl)-piperidin-1-yl]-4-oxo-butyl}-3,5,7,8-tetrahydro-pyrano[4,3-d]pyrimidin-4-one]: 1.6e-06 M, 2.3e-09 M, 23 nM and 24000 nM.
For `Cn1cc(C(=O)C2CCN(C(=O)CCCc3nc4c(c(=O)[nH]3)CCCC4)CC2)cn1` [Compound C230, 2-{4-[4-(1-Methyl-1H-pyrazole-4-carbonyl)-piperidin-1-yl]-4-oxo-butyl}-5,6,7,8-tetrahydro-3H-quinazolin-4-one], the EC50 in test [1] is 4.7e-08 M. In addition, the values for the IC50 in test [2], in test [3] and in test [4] were 2.1e-09 M, 5.1 nM and 1800 nM, respectively.
The matching figures for `COc1ccc(C(=O)C2CCN(C(=O)CCCc3cn4nc(C)cc4c(=O)[nH]3)CC2)cn1` [Compound C231, 6-{4-[4-(6-Methoxy-pyridine-3-carbonyl)-piperidin-1-yl]-4-oxo-butyl}-2-methyl-5H-pyrazolo[1,5-a]pyrazin-4-one]: 5.4e-09 M, 5.4e-10 M, 0.36 nM and 4500 nM.
Regarding `N#Cc1cc(C2CCN(C(=O)CCCc3nc4c(c(=O)[nH]3)CCCC4)CC2)cnc1N` [Compound C232, 6-Amino-1′-[4-(4-oxo-3,4,5,6,7,8-hexahydro-quinazolin-2-yl)-butyryl]-1′,2′,3′,4′,5′,6′-hexahydro-[3,4′]bipyridinyl-5-carbonitrile], the half-maximal effective concentration (EC50) in test [1] came to 5.6e-08 M. The IC50 in test [2] stood at 5.7e-09 M; in test [3], 20 nM; in test [4], 2700 nM.
Regarding `CCn1cc(C(=O)C2CCN(C(=O)CCCc3nn4cc(C)cc4c(=O)[nH]3)CC2)cn1` [Compound C233, 2-{4-[4-(1-Ethyl-1H-pyrazole-4-carbonyl)-piperidin-1-yl]-4-oxo-butyl}-6-methyl-3H-pyrrolo[2,1-f][1,2,4]triazin-4-one], the EC50 in test [1] amounted to 5.4e-08 M. Further, the IC50 was 2.3e-09 M in test [2], 1.2 nM in test [3] and 5300 nM in test [4].
The matching figures for `Cc1ccc(C(=O)C2CCN(C(=O)CCCc3nc4c(cnn4C)c(=O)[nH]3)CC2)cc1` [Compound C234, 1-Methyl-6-{4-[4-(4-methyl-benzoyl)-piperidin-1-yl]-4-oxo-butyl}-1,5-dihydro-pyrazolo[3,4-d]pyrimidin-4-one]: 1.6e-08 M, 3e-10 M, 0.66 nM and 18000 nM.
The matching figures for `Cc1ccc(C(=O)C2CCN(C(=O)CCCc3nn4cccc4c(=O)[nH]3)CC2)cc1` [Compound C235, 2-{4-[4-(4-Methyl-benzoyl)-piperidin-1-yl]-4-oxo-butyl}-3H-pyrrolo[2,1-f][1,2,4]triazin-4-one]: 3.9e-09 M, 3.9e-10 M, 0.57 nM and 3000 nM.
As to `Cn1ncc2c(=O)[nH]c(CCCC(=O)N3CCC(C(=O)c4ccc(Cl)cc4)CC3)nc21` [Compound C236, 6-{4-[4-(4-Chloro-benzoyl)-piperidin-1-yl]-4-oxo-butyl}-1-methyl-1,5-dihydro-pyrazolo[3,4-d]pyrimidin-4-one], in test [1], the EC50 worked out at 2.1e-08 M. Moreover, the 50% inhibitory concentration (IC50) in test [2] was 2.4e-10 M; in test [3] it was 0.48 nM; in test [4], 10000 nM.
Taken in the same sequence, the figures for `O=C(c1ccc(Cl)cc1)C1CCN(C(=O)CCCc2nn3cccc3c(=O)[nH]2)CC1` [Compound C237, 2-{4-[4-(4-Chloro-benzoyl)-piperidin-1-yl]-4-oxo-butyl}-3H-pyrrolo[2,1-f][1,2,4]triazin-4-one] were 1e-08 M, 3e-10 M, 0.66 nM and 10000 nM.
Taken in the same sequence, the figures for `Cn1cc(C(=O)C2CCN(C(=O)CCCc3nn4c(F)c(F)cc4c(=O)[nH]3)CC2)cn1` [Compound C238, 6,7-Difluoro-2-{4-[4-(1-methyl-1H-pyrazole-4-carbonyl)-piperidin-1-yl]-4-oxo-butyl}-3H-pyrrolo[2,1-f][1,2,4]triazin-4-one] were 5.6e-08 M, 1.5e-09 M, 1.5 nM and 4100 nM.
